The values below come from US7358390B2, “Polymorphic forms of nateglinide” (Teva Pharmaceutical Industries Ltd., priority 2002, dated 2008).

“Also recorded” adds a separate entry of the source.

Series [1] in a line: Storage of crystalline forms at room temperature, form checked by XRPD. Particulars: for crystal form after storage at RT: room temperature and pressure, open bottle, 24 h (about a day). Format: physicochemical. As for the experimental part: The various crystalline forms are also analyzed by Thermal Gravimetric Analysis (TGA). […] In contrast to the above listed forms, TGA profiles of forms L, P, U, α, δ and σ show no significant weight loss. These polymorphic forms of nateglinide are free of bound solvents, i.e., less than about 2% LOD. Table III lists the solvents used for the preparation for nateglinide solvated forms, as well as LOD values based on TGA analysis.
Storage at room temperature and pressure may also cause a transition of one form to another.
(§1) X-Ray diffraction was performed on X-Ray powder diffractometer, Scintag®, variable goniometer, Cu-tube, solid state detector. Sample holder: A round standard aluminum sample holder with round zero background quartz plate.
(§2) The sample was put on the sample holder and immediately analyzed as is. • Scanning parameters: Range: 2-40 deg 2θ, Continuos Scan, Rate: 3 deg./min. DSC: • DSC821^e Mettler Toledo®, Sample weight: 3-5 mg, Heating rate: 10° C./min, Number of holes in the crucible: 3 TGA: • Mettler TG50®, Sample weight: 7-15 mg, Heating rate: 10° C./min FTIR: • Perkin-Elmer®, Spectrum One FTIR spectrometer, Range: 4000-400 cm−1, no. of scans: 16, resolution: 4.0 cm−1, DRIFT technique.

The nature of series [2]: Thermal stability: transformation of crystalline forms on heating or drying, form checked by XRPD. Type of series: physicochemical. Particulars: for crystal form obtained upon drying/heating: heating under ambient or reduced pressure, generally about 40-80° C. As for the experimental part: The various crystalline forms are related to each other in that drying of one form may result in a transformation to another form, namely nateglinide Forms A, B, D, E, F, G, H, I, J, K, L, M, N, Q, S, T, V, Z, α, β, δ, γ, ε, θ and Ω. The drying is carried out by heating a sample under ambient or reduced pressure. Generally, a preferred temperature is from about 40° C. to about 80° C., more preferably under reduced pressure. […] The term “stable” as used herein refers to a polymorphic change of less than about 5% by weight, more preferably less than about 2%, particularly for Form δ.
as §1, §2
Nateglinide Form delta (10 grams), with about 3% heptane (wt/wt), was dried in a fluidized bed drier for 4 hours at 60° C. Residual heptane was 1578 ppm af. Ethyl acetate is under detection limit. Polymorphic form of the dry product is delta.
Sample of nateglinide form U (˜1 g) was introduced into a 6-gram vial and heated over 8.5 h in a 100° C. oil bath. The vial were extracted from the bath.
Sample of nateglinide form U (˜0.5 g) was heated to 120° C. for 1 h in an atmospheric pressure.
Sample of nateglinide form δ (˜0.5 g) was heated to 120° C. for 1 h in an atmospheric pressure.
The product of example 11 was dried at 50° C. in a vacuum oven overnight, and analyzed by XRD.
Nateglinide (40 grams) Form delta (1.5% heptane) was dried in a stirred reactor (7-10 rpm) under 60 mmHg vacuum and at 60° C. After 6 hours of drying, the residual solvent of the material was 613 ppm of heptane.

For series [3] the following is noted: second endotherm at 138.2° C. after grinding; cited from earlier work.
Series [4] can be described thus: Exposure of NTG Form H to solvent vapors. Type of series: physicochemical. Particulars: 4 d, room temperature. The protocol: Nateglinide (3.50 g) was added to a polypropylene can and weighed. The can was introduced into a bigger polypropylene container containing a solvent, and stored at room temperature. The can was removed from the container and weighed (Wfinal). The can content was divided into 2 portions. One portion was dried at a temperature of 55° C. and a pressure of 20-30 mmHg to constant weight (±0.01 g).

Series [5] in a line: Stability at about 40° C. and about 75% relative humidity. Type of series: physicochemical. The note with it: about 40° C., about 75% relative humidity, at least about 3 months. As for the experimental part: Crystalline Form δ is stable at a temperature of about 40° C. and a relative humidity of about 75% for at least about 3 months.
The mark [6] stands for this setting: 120° C., 1 h, atmospheric pressure.

Turning to `CC(C)[C@H]1CC[C@H](C(=O)N[C@H](Cc2ccccc2)C(=O)O)CC1` [Form A, nateglinide], the “crystal form after storage at RT” value in series [1] is “partially converts to Form B”; in series [1] (listed as A), “conversion to Form B”. Moreover, the “crystal form obtained upon drying/heating” value in series [2] is listed as “convert to Form B”. Regarding `CC(C)[C@H]1CC[C@H](C(=O)N[C@H](Cc2ccccc2)C(=O)O)CC1` [Form B, nateglinide], in series [3], the “stability during grinding (DSC)” value was “unstable and susceptible to change”.

For the compound `CC(C)[C@H]1CC[C@H](C(=O)N[C@H](Cc2ccccc2)C(=O)O)CC1` [Form C, nateglinide], in series [2], the “crystal form obtained upon drying/heating” value is on record as “convert to Form B; also recorded: Form B or α”. With `CC(C)[C@H]1CC[C@H](C(=O)N[C@H](Cc2ccccc2)C(=O)O)CC1` [Form E, nateglinide], the “crystal form obtained upon drying/heating” value in series [2] is reported as “convert to Form B”. Regarding `CC(C)[C@H]1CC[C@H](C(=O)N[C@H](Cc2ccccc2)C(=O)O)CC1` [Form F, nateglinide], the “crystal form obtained upon drying/heating” value in series [2] was “convert to Form B; also recorded: a mixture of Form B and G”.

Take `CC(C)[C@H]1CC[C@H](C(=O)N[C@H](Cc2ccccc2)C(=O)O)CC1` [Form G, nateglinide]: in series [2], the “crystal form obtained upon drying/heating” value is given as “convert to Form B”. For the compound `CC(C)[C@H]1CC[C@H](C(=O)N[C@H](Cc2ccccc2)C(=O)O)CC1` [Form H, nateglinide], the “Form wet after exposure to solvent vapors” value in series [4] (Acetone vapors) and in series [4] (Water vapors) was “stable” throughout.

As to `CC(C)[C@H]1CC[C@H](C(=O)N[C@H](Cc2ccccc2)C(=O)O)CC1` [Form I, nateglinide], the “crystal form after storage at RT” value is “converts to Form L” in series [1] and “Form L” in series [1] (listed as I). Consider `CC(C)[C@H]1CC[C@H](C(=O)N[C@H](Cc2ccccc2)C(=O)O)CC1` [Form J, nateglinide], for which the “XRD pattern after storage at RT” value in series [1] (RT, overnight) is “changed after storage at RT”. Also, in series [2], the “crystal form obtained upon drying/heating” value is listed as “convert to Form B; also recorded: Form B or β”.

For the compound `CC(C)[C@H]1CC[C@H](C(=O)N[C@H](Cc2ccccc2)C(=O)O)CC1` [Form M, nateglinide], in series [2], the “crystal form obtained upon drying/heating” value was “Form L”.

As to `CC(C)[C@H]1CC[C@H](C(=O)N[C@H](Cc2ccccc2)C(=O)O)CC1` [Form N, nateglinide], the “crystal form obtained upon drying/heating” value in series [2] is recorded as “Form L”.

Turning to `CC(C)[C@H]1CC[C@H](C(=O)N[C@H](Cc2ccccc2)C(=O)O)CC1` [Form Q, nateglinide], the “crystal form after storage at RT” value in series [1] is “converts to Form Y”; in series [1] (listed as Q) it was “Form Y, which contains”. Moreover, the “crystal form obtained upon drying/heating” value in series [2] is listed as “convert to Form B”. With `CC(C)[C@H]1CC[C@H](C(=O)N[C@H](Cc2ccccc2)C(=O)O)CC1` [Form T, nateglinide], the entries for the “crystal form after storage at RT” value in series [1] and in series [1] (listed as T) were “converts to Form E” and “Form E”, respectively. For the same compound, the “crystal form obtained upon drying/heating” value in series [2] is “convert to Form B; also recorded: a mixture of Form B and G”. For `CC(C)[C@H]1CC[C@H](C(=O)N[C@H](Cc2ccccc2)C(=O)O)CC1` [Form U, nateglinide], the “crystal form after heating (XRPD)” value in series [2] (setting [6]) is “Form U”; in series [2] (about 100° C. oil bath, 8.5 h) it was “does not undergo a transition”; in series [2] (about 100° C. oil bath, 8.5 h, listed as form U) it was “Form U”.

Consider `CC(C)[C@H]1CC[C@H](C(=O)N[C@H](Cc2ccccc2)C(=O)O)CC1` [Form V, nateglinide], for which the “crystal form obtained upon drying/heating” value in series [2] is listed as “Form H”.

With `CC(C)[C@H]1CC[C@H](C(=O)N[C@H](Cc2ccccc2)C(=O)O)CC1` [Form Z, nateglinide], the “crystal form obtained upon drying/heating” value in series [2] is on record as “convert to Form B”. As for `CC(C)[C@H]1CC[C@H](C(=O)N[C@H](Cc2ccccc2)C(=O)O)CC1` [Form Ω, nateglinide], in series [2] (50° C., vacuum oven, overnight), the “crystal form after drying (XRD)” value was “mixture of Form omega and Form Z”. In addition, the “crystal form obtained upon drying/heating” value in series [2] is “convert to Form B”. Regarding `CC(C)[C@H]1CC[C@H](C(=O)N[C@H](Cc2ccccc2)C(=O)O)CC1` [Form β, nateglinide], the “crystal form obtained upon drying/heating” value in series [2] was “convert to Form B”. For `CC(C)[C@H]1CC[C@H](C(=O)N[C@H](Cc2ccccc2)C(=O)O)CC1` [Form δ, nateglinide], the stability when heated entry in series [2] (60° C. overnight (at least about 8 hours)) was “stable”. Moreover, the “crystal form after heating (XRPD)” value is “Form B” in series [2] (setting [6]) and “Form B” in series [2] (120° C., 1 h, atmospheric pressure, listed as form δ). Besides, the “polymorphic form after drying” value in series [2] (fluidized bed drier, 4 hours, 60° C.) was “delta”. Moreover, the “crystal form obtained upon drying/heating” value in series [2] is on record as “convert to Form B”. In addition, the polymorph after drying result in series [2] (stirred reactor (7-10 rpm), 60 mmHg vacuum, 60° C., 6 hours) is recorded as “remained delta form”. Further, the stability on storage result in series [5] is reported as “stable”.

With `CC(C)[C@H]1CC[C@H](C(=O)N[C@H](Cc2ccccc2)C(=O)O)CC1` [Form ε, nateglinide], in series [2], the “crystal form obtained upon drying/heating” value was “Form H”. As for `CC(C)[C@H]1CC[C@H](C(=O)N[C@H](Cc2ccccc2)C(=O)O)CC1` [Form θ, nateglinide], the “crystal form obtained upon drying/heating” value in series [2] is “convert to Form B”. Turning to `CC(C)[C@H]1CC[C@H](C(=O)N[C@H](Cc2ccccc2)C(=O)O)CC1` [acetonitrile solvate of Form Epsilon, nateglinide], the “crystal form obtained upon drying/heating” value in series [2] is listed as “Form B”. On the same count and under the same terms, the value for `CC(C)[C@H]1CC[C@H](C(=O)N[C@H](Cc2ccccc2)C(=O)O)CC1` [nitromethane solvates of Form Epsilon, nateglinide] was “Forms H or P”.
